# Tests used:
# [1] = tested on: Rice, Water Seeded; experiment: Test F flood (paddy) test; format: in vivo, Oryza sativa; settings: 62 g ai/ha, 21 d, scale 0-100
# From the text: Three plastic pots (ca. 16-cm diameter) per rate were partially filled with sterilized Tama silt loam soil comprising a 35:50:15 ratio of sand, silt and clay and 2.6% organic matter. Separate plantings for each of the three pots were as follows. Seeds from the U.S. of monochoria (Monochoria vaginalis), sedge, umbrella (small-flower umbrella sedge, Cyperus difformis), bulrush, […] bulrush, Scirpus juncoides), and […] (purple […] coccinea), were planted into one 16-cm pot for each rate. Seeds from the U.S. of flatsedge, rice (rice flatsedge, Cyperus iria), sprangletop, Brdd. (bearded sprangletop, Leptochloa fascicularis), one stand of 9 or 10 water seeded rice seedlings (Rice, W.S. Jap, Oryza sativa cv. 'Japonica-[…]' or Rice, W.S. Ind, 'Indica'), and two stands of 3 or 4 seedlings of rice, transplanted (transplanted rice, Oryza sativa cv. 'Japonica-[…]') were planted into one 16-cm pot for each rate. Seeds from the U.S. of barnyardgrass (Echinochloa crus-galli), […] (common […], Alisma plantago-aquatica), and watergrass, late (late watergrass, Echinochloa oryzicola) were planted into one 16-cm pot for each rate. Plantings were sequential so that crop and weed species were at the 2.0 to 2.5-leaf stage at time of treatment. […] Effects of treatments on rice and weeds were visually evaluated by comparison to untreated controls after 21 d. […]
# [2] = tested on: waterhemp (AMATA); experiment: Test H preemergence mixture test (Colby); format: in vivo, Amaranthus rudis; settings: for Plant response rating, Obsd., AMATA: 21 d after treatment, scale 0 to 100; for AMATA Obsd.: applied alone, 21 d, mean of three replicates, scale 0-100
# From the text: Colby's Equation was used to determine the herbicidal effects expected from the mixtures. Colby's Equation (Colby, S. R. “Calculating Synergistic and Antagonistic Responses of Herbicide Combinations,” Weeds, 15(1), pp 20-22 (1967)) calculates the expected additive effect of herbicidal mixtures and for two active ingredients is of the form: Pa+b=Pa+Pb−(PaPb/100)
# where • Pa+b is the percentage effect of the mixture expected from additive contribution of the individual components: • Pa is the observed percentage effect of the first active ingredient at the same use rate as in the mixture, and • Pb is the observed percentage effect of the second active ingredient at the same use rate as in the mixture. In the following Tables, rates are shown in grams of active ingredient per hectare (g a.i./ha); “Obsd.” is the observed effect. “Exp.” is the expected effect calculated from Colby's Equation.
# This test evaluated the effect of mixtures of compound 80 with several commercial herbicides on four plant species. Seeds of plant species selected from corn (ZEAMD, Zea mays), soybean (GLXMA, Glycine max), waterhemp (common waterhemp, AMATA, Amaranthus rudis), and giant foxtail (SETFA, Setaria faberii) were planted into a silt loam soil and treated preemergence with test chemicals formulated in a non-phytotoxic solvent mixture which included a surfactant and applied using a volume of 281 L/ha. Each treatment was replicated three times. Treated plants and controls were maintained in a greenhouse using supplemental lighting to maintain a photoperiod of about 16 h; daytime and nighttime temperatures were about 24-30° C. and 19-21° C., respectively. Nutrients were applied using a balanced fertilizer applied through the watering system. At 21 d after treatment, all species were compared to controls and visually evaluated. Plant response ratings were calculated as the means of the three replicates, are summarized in Tables H1 through H5, and are based on a scale of 0 to 100 where 0 is no effect and 100 is complete control. A dash (-) response means no test result. The Expected (Exp.) results were calculated using Colby's Equation as described for Test G above.
# [3] = tested on: Rice, W.S. Jap; experiment: Test F flood (paddy) test; format: in vivo, Oryza sativa cv. Japonica—M202; settings: 21 d, scale 0-100
# Outline: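 Pots of sterilized Tama silt loam (35:50:15 sand:silt:clay, 2.6% organic matter) were sown so crop and weeds reached the 2.0–2.5-leaf stage; greenhouse 30/27 °C, 16-h photoperiod. Pots flooded to 3 cm, compound applied into paddy water, depth maintained. Visual rating vs untreated controls after 21 d, 0–100 scale.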
# [4] = tested on: transplanted japonica rice (ORYSA); experiment: Test G paddy mixture test (Colby); format: in vivo, Oryza sativa; settings: applied alone, 14 d; for ORYSA Obsd.: scale 0-100; for ORYSA Obsd. plant response rating (scale 0 to 100): flooded
# Method: (§1) Seeds of small-flower umbrella […], Cyperus difformis) and […], Heteranthera limosa) were sown on the soil surface in two separate quadrants of 11-cm (4-inch) tubs filled with steam pasteurized Tama soil. Simultaneously, plantings of […], Echinochloa crus-galli) and transplanted japonica rice (ORYSA, Oryza sativa) were established in separate “plug” flats. […] Herbicide application timing was targeted at the 2.0 to 2.5 leaf stage and the plants were treated with test chemicals formulated in a non-phytotoxic solvent. Treated plants and controls were maintained in a greenhouse for 14 d, after which time all species were compared to controls and visually evaluated. Plant response ratings are summarized in Tables G1 through G12, and are based on a scale of 0 to 100 where 0 is no effect and 100 is complete control. A dash (-) response means no test result. Colby's Equation was used to determine the herbicidal effects expected from the mixtures. Colby's Equation (Colby, S. R. “Calculating Synergistic and Antagonistic Responses of Herbicide Combinations,” Weeds, 15(1), pp 20-22 (1967)) calculates the expected additive effect of herbicidal mixtures and for two active ingredients is of the form: Pa+b=Pa+Pb-(PaPb/100) where • Pa+b is the percentage effect of the mixture expected from additive contribution of the individual components: • Pa is the observed percentage effect of the first active ingredient at the same use rate as in the mixture, and • Pb is the observed percentage effect of the second active ingredient at the same use rate as in the mixture. In the following Tables, rates are shown in grams of active ingredient per […]); “Obsd.” is the observed effect. “Exp.” is the expected effect calculated from Colby's Equation.
# [5] = tested on: ducksalad (HETLI); experiment: Test G paddy mixture test (Colby); format: in vivo, Heteranthera limosa; settings: applied alone, 14 d; for HETLI Obsd.: scale 0-100; for HETLI Obsd. plant response rating (scale 0 to 100): flooded
# Outline: (§2)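 Weeds sown in Tama soil tubs; barnyardgrass and transplanted japonica rice grown in plug flats. Treated at 2.0–2.5 leaf stage; visual rating 0–100 versus controls after 14 d in greenhouse. Expected mixture effect calculated with Colby's equation; rates in g a.i. per area.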
# [6] = tested on: barnyardgrass (ECHCG); experiment: Test G paddy mixture test (Colby); format: in vivo, Echinochloa crus-galli; settings: applied alone, 14 d; for ECHCG Obsd.: scale 0-100; for ECHCG Obsd. plant response rating (scale 0 to 100): flooded
# Outline: as §2
# [7] = tested on: small-flower umbrella sedge (CYPDI); experiment: Test G paddy mixture test (Colby); format: in vivo, Cyperus difformis; settings: applied alone, 14 d; for CYPDI Obsd.: scale 0-100; for CYPDI Obsd. plant response rating (scale 0 to 100): flooded
# Method: as §1
smiles,measurement,setting,value
CN1CC(c2ccc(F)c(F)c2)C(C(=O)Nc2cccc(F)c2F)C1=O (centres unmarked) [Compound 303],"Plant response rating, Rice, Water Seeded",[1],0
"O=C1NCC(c2ccc(C(F)(F)F)cc2)C1C(=O)Nc1cccc(F)c1F (centres unmarked) [Compound 80, N-(2,3-difluorophenyl)-2-oxo-4-[4-(trifluoromethyl)phenyl]-3-pyrrolidinecarboxamide]","Plant response rating, Obsd., AMATA",[2]; Cmpd 80 alone 62 g a.i./ha,0
same,"Plant response rating, Obsd., AMATA",[2]; Cmpd 80 alone 125 g a.i./ha,33
same,AMATA Obsd.,[2]; 62 g a.i./ha,0
same,AMATA Obsd.,[2]; 125 g a.i./ha,33
"O=C1NCC(c2ccc(F)c(F)c2)C1C(=O)Nc1cccc(F)c1F (centres unmarked) [Compound 17, N-(2,3-difluorophenyl)-4-(3,4-difluorophenyl)-2-oxo-3-pyrrolidinecarboxamide]","Plant response rating, Rice, W.S. Jap",[3]; 125 g ai/ha,0
same,"Plant response rating, Rice, W.S. Jap",[3]; 250 g ai/ha,15
same,"Plant response rating, Rice, W.S. Jap",[3]; 500 g ai/ha,15
same,"Plant response rating, Rice, W.S. Jap",[3]; 1000 g ai/ha,60
same,"Plant response rating, Rice, W.S. Jap",[3]; 2000 g ai/ha,85
"O=C1NC[C@H](c2cccc(C(F)(F)F)c2)[C@H]1C(=O)Nc1ccccc1F [Compound 204, (3R,4S)—N-(2-fluorophenyl)-2-oxo-4-[3-(trifluoromethyl)phenyl]-3-pyrrolidinecarboxamide]",ORYSA Obsd.,[4]; 125 g a.i./ha,0
same,ORYSA Obsd. plant response rating (scale 0 to 100),[4]; 125 g a.i./ha,0
same,ORYSA Obsd.,[4]; 500 g a.i./ha,0
same,ORYSA Obsd. plant response rating (scale 0 to 100),[4]; 500 g a.i./ha,0
same,HETLI Obsd.,[5]; 125 g a.i./ha,100
same,HETLI Obsd. plant response rating (scale 0 to 100),[5]; 125 g a.i./ha,100
same,HETLI Obsd.,[5]; 500 g a.i./ha,100
same,HETLI Obsd. plant response rating (scale 0 to 100),[5]; 500 g a.i./ha,100
same,ECHCG Obsd.,[6]; 125 g a.i./ha,65
same,ECHCG Obsd. plant response rating (scale 0 to 100),[6]; 125 g a.i./ha,65
same,ECHCG Obsd.,[6]; 500 g a.i./ha,90
same,ECHCG Obsd. plant response rating (scale 0 to 100),[6]; 500 g a.i./ha,90
same,CYPDI Obsd.,[7]; 125 g a.i./ha,0
same,CYPDI Obsd. plant response rating (scale 0 to 100),[7]; 125 g a.i./ha,0
same,CYPDI Obsd.,[7]; 500 g a.i./ha,0
same,CYPDI Obsd. plant response rating (scale 0 to 100),[7]; 500 g a.i./ha,0
